Assay type in all cases: functional
The subject of assay [1] is Rattus norvegicus. In words: Tumor initiating activity measured as incidence of % aberrent cells with chromosomal aberrations, at given dose of 50 mg/kg.
Assay [2] deals with Rattus norvegicus. As to the kind of experiment: Tumor initiating activity measured as number of chromosomal aberrations per cell, at a dose of 50 mg/kg.
The species named for assay [3] is Mus musculus. In words: Tumor initiating activity measured as percentage of mice with papillomas at a dose of 50 nmol.
Assay [4] is filed under the species Mus musculus. As to the kind of experiment: Tumor initiating activity measured as number of papillomas on mouse skin at a dose of 50 nmol.
Assay [5] is filed under the species Mus musculus. In words: Tumor initiating activity measured as percentage of mice with papillomas at a dose of 100 nmol.
Assay [6] is filed under the species Mus musculus. In words: Tumor initiating activity measured as number of papillomas on mouse skin at a dose of 100 nmol.
Assay [7] deals with Rattus norvegicus. As to the kind of experiment: Tumor initiating activity measured as number of chromosomal aberrations per cell, at a dose of 25 mg/kg.
Assay [8] deals with Rattus norvegicus. As to the kind of experiment: Tumor initiating activity measured as number of chromosomal aberrations per cell, at given dose 50 mg/kg.
For assay [9], the system named is Rattus norvegicus. As to the kind of experiment: Tumor initiating activity measured as incidence of % aberrent cells with chromosomal aberrations, at given dose of 25 mg/kg.
The species entered for assay [10] is Mus musculus. In words: Tumor initiating activity measured as number of papillomas on mouse skin at a dose of 200 nmol.
For assay [11], the species on record is Mus musculus. In words: Tumor initiating activity measured as percentage of mice with papillomas at a dose of 200 nmol.

SMILES strings stand for the structures.

In the assay on Rattus norvegicus [1], `Cc1c2ccccc2cc2c1ccc1c(O)c(O)ccc12` registered an Activity of 6.6%. The compound also had an aberrations per cell in the assay on Rattus norvegicus [2] of 0.07 aberrations/cell.
`Cc1c2cccc3c2c(c2ccc4ccccc4c12)CC3` yielded an Activity in the assay filed under Mus musculus [3] of 100%. This compound registered a papillomas per mouse in the assay filed under Mus musculus [4] of 14.7 papillomas/mouse.
For `Oc1ccc2c(ccc3cc4ccccc4cc32)c1O`, the Activity with Rattus norvegicus [1] was determined as 2.2%. Moreover, the aberrations per cell with Rattus norvegicus [2] was 0.02 aberrations/cell.
Compound `Cc1ccc2cc3c(ccc4ccccc43)c3c2c1CC3` [3-METHYLCHOLANTHRENE] had an Activity in the assay filed under Mus musculus [5] of 97%. Besides, in the assay filed under Mus musculus [6], the papillomas per mouse was determined as 7.13 papillomas/mouse.
In the case of `Cc1c2ccccc2c(C)c2c1ccc1c(O)c(O)ccc12`, the Activity in the assay with Rattus norvegicus [1] is listed as 53%; in the assay with Rattus norvegicus [9], 22.2%. The results for the aberrations per cell in the assay with Rattus norvegicus [7] and in the assay on Rattus norvegicus [8] were 0.31 aberrations/cell and 1.44 aberrations/cell, respectively.
On to `Cc1ccc2cc3c(ccc4c(O)c(O)ccc43)c3c2c1CC3`, for which the Activity in the assay listed under Mus musculus [5] is listed as 100%. In the assay listed under Mus musculus [6], this compound registered a papillomas per mouse of 7.7 papillomas/mouse.
In turn, `Cc1c2ccccc2cc2ccc3c(O)c(O)ccc3c12` displayed an aberrations per cell in the assay on Rattus norvegicus [7] of 0.17 aberrations/cell. The Activity in the assay on Rattus norvegicus [9] was found to be 12.8%.
For the compound `Oc1ccc2c(ccc3c4c5c(cccc5cc32)CC4)c1O`, the papillomas per mouse in the assay listed under Mus musculus [10] worked out at 3.32 papillomas/mouse. Also, the Activity in the assay filed under Mus musculus [11] is given as 80%.
The like results for `c1cc2c3c(c4ccc5ccccc5c4cc3c1)CC2` [CHOLANTHRENE] were, in that order, 6.9 papillomas/mouse and 93%.
`Cc1c2cccc3c2c(c2ccc4c(O)c(O)ccc4c12)CC3` yielded an Activity in the assay filed under Mus musculus [3] of 100%. Also, the papillomas per mouse in the assay filed under Mus musculus [4] was determined as 16.5 papillomas/mouse.
